According to paper PMC3532212 (PLoS ONE, 2012):

Tests used:
[1] = Plasma concentrations in repeat-dosing study, satellite rats; assay type: in vivo, rat; details: for concentration at 4 h / concentration at 8 h / concentration at 24 h: male, Sprague Dawley, rat, plasma, po, mean±SEM; for Plasma concentration at Tmax (4 hrs) / Terminal plasma concentration at Tmax: satellite rats; for Plasma concentration at Tmax (4 hrs): day 1; for Terminal plasma concentration at Tmax: last day of study
Procedure: Mean arterial pressure was assessed in conscious, freely moving male Sprague Dawley rats (n = 6–8/group; Charles River) instrumented with telemetry transmitters (DSI-Ponemah) and housed in metabolism cages as previously described, [26]. Tested compounds were solubilized in a 0.5% Methylcellulose/0.015% Tween 80 vehicle that was also dosed alone (p.o./QD, 5 mL/kg) as a control in the study. FTY720 was administered p.o. at 0.3, 1.0, 3.0, 10.0 mg/kg p.o. as a single dose or p.o./QD at 0.5, 1.5, and 5.0 mg/kg in a chronic study. BAF312 was administered p.o/QD at 0.3, 3.0, and 30 mg/kg as a single dose and in a chronic study. Mean arterial pressure and heart rate are shown as 1-hr and/or 24-hr mean values±SEM as described in the results. Blood samples in satellite rats were withdrawn at various timepoints as described in the results for analysis of plasma concentrations of the parent compound and, in the case of FTY720, also the phosphorylated metabolite, (S)-FTY720-P. Statistical analysis for the single-dose acute studies was based on one-way ANOVA to compare the treatment groups vs. vehicle for each time period after dosing (0–24 hrs, 24–48 hrs, and 48–72 hrs); statistical significance (p<0.05) was detected by Dunnett’s post-hoc test to compare treatment with vehicle controls. The statistical analysis in the chronic studies were based on one-way ANOVA with repeated measures to compare the treatment arms; statistical significance (p<0.05) was detected by Dunnett’s post-hoc test to compare treatment with vehicle controls.

[2] = Plasma concentrations during escalating i.v. infusion in anesthetized rats; assay type: in vivo; details: male, Sprague Dawley, plasma, iv, anesthetized rat, BAF312 i.v.
Procedure: The cardiovascular effects of FTY720 and BAF312 were tested in anesthetized rats (180–200 g). In brief, male Sprague Dawley rats (Charles River) were anesthetized with Inactin (110 mg/kg i.p.) and a tracheotomy performed. The femoral artery and veins were catheterized for measurement of mean arterial pressure and heart rate, collection of blood samples at 20-min intervals (0.2 mL/sample), and for compound infusion/hydration as previously described, [24]; blood samples were also withdrawn in vehicle-treated control rats. FTY720, infused as a hydrochloride salt (0.1, 0.3, 1.0 mg/kg/20-min free base equivalent solubilized in a 100% PEG-400 vehicle), or BAF312 (0.5, 1.5, 5.0 mg/kg/20-min solubilized in a 100% PEG-400 vehicle) were administered via three escalating 20-min infusions (0.011 mL/min) followed by a 1-hr post-treatment period. A blood sample was withdrawn at 20, 40, 60, and 120-minutes for analysis of plasma concentrations of the parent compound, and in the case of FTY720, also the phosphorylated metabolite, (S)-FTY720-P. Statistical significance (p<0.05) was based on a t-test comparing treatment change from baseline (baseline was defined as the period from −30 to 0 minutes) vs. vehicle controls change from baseline at each timepoint without adjustment for multiple comparisons. In a separate group of anesthetized rats in which left ventricular (LV) contractility was also recorded with a Millar pressure transducer introduced into the left ventricle, BAF312 was infused in the same dosing regimen as the studies described above (0.5, 1.5, 5.0 mg/kg/20-min solubilized in a 100% PEG-400 vehicle) and effects on LV dP/dtmax were recorded.

human S1P4 = target: T1, human S1P4 (Homo sapiens, UniProt O95977); assay: B arrestin recruitment assay, Tango EDG6-bla U2OS cells; assay type: cell-based
T1 construct: host or cells: U2OS (Tango EDG6-bla)
T1 sequence (O95977 1-384): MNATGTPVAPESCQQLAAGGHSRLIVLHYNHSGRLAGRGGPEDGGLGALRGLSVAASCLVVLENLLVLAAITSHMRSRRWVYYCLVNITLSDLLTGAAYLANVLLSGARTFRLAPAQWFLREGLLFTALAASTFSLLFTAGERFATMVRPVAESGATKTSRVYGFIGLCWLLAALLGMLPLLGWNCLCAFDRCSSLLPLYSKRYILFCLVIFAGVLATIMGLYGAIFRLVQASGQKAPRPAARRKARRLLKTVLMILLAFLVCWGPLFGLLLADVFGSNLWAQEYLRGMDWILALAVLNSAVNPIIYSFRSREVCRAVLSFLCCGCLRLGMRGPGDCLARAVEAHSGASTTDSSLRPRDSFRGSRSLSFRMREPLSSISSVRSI
Procedure: Tango™ EDG1-bla U2OS cells (Human S1P1), Tango™ EDG3-bla U2OS cells (human S1P3), Tango™ EDG6-bla U2OS cells (human S1P4) and Tango™ EDG8-bla U2OS cells (human S1P5) cell lines were cultured and assayed according to manufacturers instructions with one modification; agonists incubated on the cells for 18 hours prior to addition of the GenBlazer substrate. Final DMSO concentration in the assay is 1%.

Question: Which results are given for `CCc1cc(/C(C)=N/OCc2ccc(C3CCCCC3)c(C(F)(F)F)c2)ccc1CN1CC(C(=O)O)C1` [BAF312]?
Answer: concentration at 4 h ([1]; 0.3 mg/kg/day, BAF312 0.3 mg/kg/d p.o., Terminal (last day), 4 hr post-dose): 81 ± 8 nM; concentration at 8 h ([1]; 0.3 mg/kg/day, BAF312 0.3 mg/kg/d p.o., Terminal (last day), 8 hr post-dose): 54 ± 7 nM; concentration at 24 h ([1]; 0.3 mg/kg/day, BAF312 0.3 mg/kg/d p.o., Terminal (last day), 24 hr post-dose): 13 ± 6 nM; concentration at 4 h ([1]; 0.3 mg/kg/day, BAF312 0.3 mg/kg/d p.o., Day 1, 4 hr post-dose): 91 ± 7 nM; concentration at 8 h ([1]; 0.3 mg/kg/day, BAF312 0.3 mg/kg/d p.o., Day 1, 8 hr post-dose): 65 ± 8 nM; concentration at 24 h ([1]; 0.3 mg/kg/day, BAF312 0.3 mg/kg/d p.o., Day 1, 24 hr post-dose): 0 nM; concentration at 4 h ([1]; 3 mg/kg/day, BAF312 3.0 mg/kg/d p.o., Terminal (last day), 4 hr post-dose): 735 ± 73 nM; concentration at 8 h ([1]; 3 mg/kg/day, BAF312 3.0 mg/kg/d p.o., Terminal (last day), 8 hr post-dose): 480 ± 33 nM; concentration at 24 h ([1]; 3 mg/kg/day, BAF312 3.0 mg/kg/d p.o., Terminal (last day), 24 hr post-dose): 98 ± 8 nM; concentration at 4 h ([1]; 3 mg/kg/day, BAF312 3.0 mg/kg/d p.o., Day 1, 4 hr post-dose): 685 ± 113 nM; concentration at 8 h ([1]; 3 mg/kg/day, BAF312 3.0 mg/kg/d p.o., Day 1, 8 hr post-dose): 584 ± 81 nM; concentration at 24 h ([1]; 3 mg/kg/day, BAF312 3.0 mg/kg/d p.o., Day 1, 24 hr post-dose): 103 ± 9 nM; concentration at 4 h ([1]; 30 mg/kg/day, BAF312 30.0 mg/kg/d p.o., Terminal (last day), 4 hr post-dose): 8330 ± 650 nM; concentration at 8 h ([1]; 30 mg/kg/day, BAF312 30.0 mg/kg/d p.o., Terminal (last day), 8 hr post-dose): 5280 ± 443 nM; concentration at 24 h ([1]; 30 mg/kg/day, BAF312 30.0 mg/kg/d p.o., Terminal (last day), 24 hr post-dose): 942 ± 117 nM; concentration at 4 h ([1]; 30 mg/kg/day, BAF312 30.0 mg/kg/d p.o., Day 1, 4 hr post-dose): 6400 ± 390 nM; concentration at 8 h ([1]; 30 mg/kg/day, BAF312 30.0 mg/kg/d p.o., Day 1, 8 hr post-dose): 4820 ± 617 nM; concentration at 24 h ([1]; 30 mg/kg/day, BAF312 30.0 mg/kg/d p.o., Day 1, 24 hr post-dose): 721 ± 211 nM; Plasma concentration at Tmax (4 hrs) ([1]; BAF312 0.3 mg/kg/d p.o.): 91 ± 7 nM; Terminal plasma concentration at Tmax ([1]; BAF312 0.3 mg/kg/d p.o.): 81 ± 8 nM; Plasma concentration at Tmax (4 hrs) ([1]; BAF312 3.0 mg/kg/d p.o.): 685 ± 113 nM; Terminal plasma concentration at Tmax ([1]; BAF312 3.0 mg/kg/d p.o.): 735 ± 73 nM; Plasma concentration at Tmax (4 hrs) ([1]; BAF312 30 mg/kg/d p.o.): 6395 ± 390 nM; Terminal plasma concentration at Tmax ([1]; BAF312 30 mg/kg/d p.o.): 8328 ± 650 nM; concentration at 20 min ([2]; end of 0.5 mg/kg/20 min infusion): 1430 ± 707 nM; concentration at 40 min ([2]; end of 1.5 mg/kg/20 min infusion): 3220 ± 210 nM; concentration at 60 min ([2]; end of 5.0 mg/kg/20 min infusion): 7250 ± 517 nM; concentration at 120 min ([2]; end of 60-min post-treatment period): 2820 ± 276 nM; selectivity over S1P4 (human S1P4; B arrestin EC50s): 100 fold; EC50 (human S1P4; B arrestin, 18 hours agonist incubation): 245 nM
